Results published in patent US20130230459A1, “RADIOLABELLED mGluR2 PET LIGANDS” (Janssen Pharmaceuticals, Inc., priority 2010, published 2013).
Values joined by “and” are separate entries in the source; they are usually repeats but may differ in a detail not shown here. Equal values may be shown once.

Assay: Biodistribution studies of 11C tracers
Format: in vivo, Wistar rats
Conditions: for SUV Blood / SUV Cerebellum / SUV Cerebrum total / SUV Cortex / SUV Hippocampus / SUV Striatum: normalized for body weight; for % ID present in the carcass: at all time points examined
Description: Biodistribution studies were carried out in healthy male Wistar rats (body weight 200-450 g) at 2 min, 30 min and 60 min post injection (p.i.) (n=3/time point). Rats were injected with about 11 MBq (2 min, 30 min analysis) or 22 MBq (60 min analysis) of the tracer via tail vein under anesthesia (2.5% isoflurane in O2 at 1 L/min flow rate) and sacrificed by decapitation at above specified time points. Blood and major organs were collected in tared tubes and weighed. The radioactivity in blood, organs and other body parts was measured using an automated gamma counter. The distribution of radioactivity in different parts of the body at different time points p.i. of the tracer was calculated and expressed as percentage of injected dose (% ID), and as percentage of injected dose per gram tissue (% ID/g) for the selected organs. % ID is calculated as cpm in organ/total cpm recovered. For calculation of total radioactivity in blood, blood mass was assumed to be 7% of the body mass.

With [11CH3]Oc1c(F)ccc(F)c1C1CCN(c2ccn3c(CC4CC4)nnc3c2C(F)(F)F)CC1 [[^11C]B-3, 3-(cyclopropylmethyl)-7-[4-[3,6-difluoro-2-[^11C]methoxyphenyl]-1-piperidinyl]-8-(trifluoromethyl)-1,2,4-triazolo[4,3-a]pyridine] the “% ID Blood” value (2 min p.i.) was 8.5 % ID and 8.5 ± 1.9 % ID, the “% ID Carcass” value (2 min p.i.) was 36.0 ± 0.7 % ID and the “% ID Cerebellum” value (2 min p.i.) was 0.17 % ID and 0.165 ± 0.009 % ID. For the same compound, the “% ID Cerebrum total” value (2 min p.i.) was 0.54 % ID and 0.536 ± 0.048 % ID, the “% ID Cortex” value (2 min p.i.) was 0.062 ± 0.009 % ID and the “% ID Heart” value (2 min p.i.) was 4.8 ± 0.4 % ID. The “% ID Hippocampus” value (2 min p.i.) was 0.017 ± 0.002 % ID, the “% ID Intestines” value (2 min p.i.) was 9.4 ± 0.8 % ID and the “% ID Kidneys” value (2 min p.i.) was 8.8 ± 0.7 % ID. The “% ID Liver” value (2 min p.i.) was 28.7 ± 2.1 % ID, the “% ID Lungs” value (2 min p.i.) was 3.7 ± 1.7 % ID and the “% ID Rest of cerebrum” value (2 min p.i.) was 0.457 ± 0.050 % ID. For the same compound, the “% ID Spleen + Pancreas” value (2 min p.i.) was 2.0 ± 0.1 % ID, the “% ID Stomach” value (2 min p.i.) was 1.5 ± 0.4 % ID and the “% ID Striatum” value (2 min p.i.) was 0.028 ± 0.002 % ID. The “% ID Urine” value (2 min p.i.) was 0.1 ± 0.0 % ID, the Total brain uptake (2 min p.i.) was 0.75 % ID and 0.75 ± 0.0 % ID and the “SUV Blood” value (2 min p.i.) was 1.20 ± 0.03. The “SUV Cerebellum” value (2 min p.i.) was 1.54 and 1.54 ± 0.01, the “SUV Cerebrum total” value (2 min p.i.) was 1.09 ± 0.01 and the “SUV Cortex” value (2 min p.i.) was 1.03 ± 0.00. For the same compound, the “SUV Hippocampus” value (2 min p.i.) was 0.85 ± 0.01, the “SUV Striatum” value (2 min p.i.) was 0.99 ± 0.00 and the “% ID Blood” value (30 min p.i.) was 2.6 ± 0.7 % ID. The “% ID Carcass” value (30 min p.i.) was 46.7 ± 7.8 % ID, the “% ID Cerebellum” value (30 min p.i.) was 0.142 ± 0.042 % ID and the “% ID Cerebrum total” value (30 min p.i.) was 0.489 ± 0.121 % ID. The “% ID Cortex” value (30 min p.i.) was 0.071 ± 0.031 % ID, the “% ID Heart” value (30 min p.i.) was 1.7 ± 0.7 % ID and the “% ID Hippocampus” value (30 min p.i.) was 0.019 ± 0.006 % ID. The “% ID Intestines” value (30 min p.i.) was 8.9 ± 1.4 % ID, the “% ID Kidneys” value (30 min p.i.) was 3.4 ± 1.0 % ID and the “% ID Liver” value (30 min p.i.) was 31.3 ± 9.7 % ID. The “% ID Lungs” value (30 min p.i.) was 0.5 ± 0.2 % ID, the “% ID Rest of cerebrum” value (30 min p.i.) was 0.373 ± 0.084 % ID and the “% ID Spleen + Pancreas” value (30 min p.i.) was 1.1 ± 0.3 % ID. For the same compound, the “% ID Stomach” value (30 min p.i.) was 3.8 ± 1.4 % ID, the “% ID Striatum” value (30 min p.i.) was 0.027 ± 0.007 % ID and the “% ID Urine” value (30 min p.i.) was 0.5 ± 0.1 % ID. For the same compound, the Total brain uptake (30 min p.i.) was 0.64 ± 0.2 % ID, the “SUV Blood” value (30 min p.i.) was 0.40 ± 0.01 and the “SUV Cerebellum” value (30 min p.i.) was 1.54 and 1.54 ± 0.04. The “SUV Cerebrum total” value (30 min p.i.) was 1.11 ± 0.03, the “SUV Cortex” value (30 min p.i.) was 1.00 ± 0.03 and the “SUV Hippocampus” value (30 min p.i.) was 0.84 ± 0.02. The “SUV Striatum” value (30 min p.i.) was 1.15 ± 0.04, the “% ID Blood” value (60 min p.i.) was 2.9 % ID and 2.9 ± 0.4 % ID and the “% ID Carcass” value (60 min p.i.) was 44.2 ± 10.9 % ID. The “% ID Cerebellum” value (60 min p.i.) was 0.142 ± 0.050 % ID, the “% ID Cerebrum total” value (60 min p.i.) was 0.499 ± 0.168 % ID and the “% ID Cortex” value (60 min p.i.) was 0.069 ± 0.027 % ID. The “% ID Heart” value (60 min p.i.) was 1.1 ± 0.6 % ID, the “% ID Hippocampus” value (60 min p.i.) was 0.023 ± 0.011 % ID and the “% ID Intestines” value (60 min p.i.) was 14.8 ± 1.7 % ID. For the same compound, the “% ID Kidneys” value (60 min p.i.) was 2.4 ± 0.9 % ID, the “% ID Liver” value (60 min p.i.) was 23.6 ± 12.9 % ID and the “% ID Lungs” value (60 min p.i.) was 0.7 ± 0.3 % ID. The “% ID Rest of cerebrum” value (60 min p.i.) was 0.371 ± 0.119 % ID, the “% ID Spleen + Pancreas” value (60 min p.i.) was 0.9 ± 0.3 % ID and the “% ID Stomach” value (60 min p.i.) was 9.6 ± 2.2 % ID. The “% ID Striatum” value (60 min p.i.) was 0.036 ± 0.014 % ID, the “% ID Urine” value (60 min p.i.) was 0.4 ± 0.1 % ID and the “% ID present in liver and intestines” value (60 min p.i.) was 38.4 % ID. The “% ID present in the urinary system” value (60 min p.i.) was 2.8 % ID, the Total brain uptake (60 min p.i.) was 0.66 ± 0.2 % ID and the “SUV Blood” value (60 min p.i.) was 0.40 ± 0.01. For the same compound, the “SUV Cerebellum” value (60 min p.i.) was 1.84 ± 0.07, the “SUV Cerebrum total” value (60 min p.i.) was 1.38 ± 0.05 and the “SUV Cortex” value (60 min p.i.) was 1.13 ± 0.04. The “SUV Hippocampus” value (60 min p.i.) was 1.11 ± 0.04, the “SUV Striatum” value (60 min p.i.) was 1.76 ± 0.07 and the “% ID present in the carcass” value was about 42 % ID.

For [11CH3]Oc1cccc(F)c1C1CCN(c2ccn3c(CC4CC4)nnc3c2Cl)CC1 [[^11C]B-6, 8-chloro-3-(cyclopropylmethyl)-7-[4-[2-fluoro-6-[^11C]methoxyphenyl]-1-piperidinyl]-1,2,4-triazolo[4,3-a]pyridine], the “% ID Blood” value (2 min p.i.) was 6.5 % ID and 6.5 ± 0.9 % ID, the “% ID Carcass” value (2 min p.i.) was 43.5 ± 1.4 % ID and the “% ID Cerebellum” value (2 min p.i.) was 0.17 % ID and 0.170 ± 0.012 % ID. For the same compound, the “% ID Cerebrum total” value (2 min p.i.) was 0.45 % ID and 0.446 ± 0.073 % ID, the “% ID Cortex” value (2 min p.i.) was 0.068 ± 0.015 % ID and the “% ID Heart” value (2 min p.i.) was 4.1 ± 0.1 % ID. For the same compound, the “% ID Hippocampus” value (2 min p.i.) was 0.019 ± 0.000 % ID, the “% ID Intestines” value (2 min p.i.) was 7.6 ± 0.5 % ID and the “% ID Kidneys” value (2 min p.i.) was 6.8 ± 0.7 % ID. The “% ID Liver” value (2 min p.i.) was 30.2 ± 0.9 % ID, the “% ID Lungs” value (2 min p.i.) was 1.8 ± 0.5 % ID and the “% ID Rest of cerebrum” value (2 min p.i.) was 0.359 ± 0.086 % ID. For the same compound, the “% ID Spleen + Pancreas” value (2 min p.i.) was 1.4 ± 0.1 % ID, the “% ID Stomach” value (2 min p.i.) was 1.3 ± 0.2 % ID and the “% ID Striatum” value (2 min p.i.) was 0.022 ± 0.002 % ID. The “% ID Urine” value (2 min p.i.) was 0.1 ± 0.0 % ID, the Total brain uptake (2 min p.i.) was 0.65 % ID and 0.65 ± 0.1 % ID and the “SUV Blood” value (2 min p.i.) was 0.90 ± 0.01. The “SUV Cerebellum” value (2 min p.i.) was 1.62 ± 0.00, the “SUV Cerebrum total” value (2 min p.i.) was 1.00 ± 0.02 and the “SUV Cortex” value (2 min p.i.) was 1.04 ± 0.00. For the same compound, the “SUV Hippocampus” value (2 min p.i.) was 0.86 ± 0.01, the “SUV Striatum” value (2 min p.i.) was 1.01 ± 0.01 and the “% ID Blood” value (30 min p.i.) was 2.9 ± 0.1 % ID. The “% ID Carcass” value (30 min p.i.) was 61.8 ± 2.1 % ID, the “% ID Cerebellum” value (30 min p.i.) was 0.201 ± 0.016 % ID and the “% ID Cerebrum total” value (30 min p.i.) was 0.723 ± 0.103 % ID. The “% ID Cortex” value (30 min p.i.) was 0.078 ± 0.020 % ID, the “% ID Heart” value (30 min p.i.) was 1.7 ± 0.2 % ID and the “% ID Hippocampus” value (30 min p.i.) was 0.028 ± 0.006 % ID. The “% ID Intestines” value (30 min p.i.) was 9.9 ± 1.4 % ID, the “% ID Kidneys” value (30 min p.i.) was 3.0 ± 0.4 % ID and the “% ID Liver” value (30 min p.i.) was 17.0 ± 1.1 % ID. The “% ID Lungs” value (30 min p.i.) was 0.8 ± 0.1 % ID, the “% ID Rest of cerebrum” value (30 min p.i.) was 0.580 ± 0.081 % ID and the “% ID Spleen + Pancreas” value (30 min p.i.) was 1.0 ± 0.2 % ID. The “% ID Stomach” value (30 min p.i.) was 2.3 ± 0.5 % ID, the “% ID Striatum” value (30 min p.i.) was 0.037 ± 0.005 % ID and the “% ID Urine” value (30 min p.i.) was 0.3 ± 0.1 % ID. The Total brain uptake (30 min p.i.) was 0.95 ± 0.1 % ID, the “SUV Blood” value (30 min p.i.) was 0.40 ± 0.00 and the “SUV Cerebellum” value (30 min p.i.) was 2.28 and 2.28 ± 0.01. The “SUV Cerebrum total” value (30 min p.i.) was 1.66 ± 0.02, the “SUV Cortex” value (30 min p.i.) was 1.47 ± 0.03 and the “SUV Hippocampus” value (30 min p.i.) was 1.36 ± 0.01. The “SUV Striatum” value (30 min p.i.) was 1.70 ± 0.01, the “% ID Blood” value (60 min p.i.) was 3.6 % ID and 3.6 ± 0.2 % ID and the “% ID Carcass” value (60 min p.i.) was 57.8 ± 1.9 % ID. The “% ID Cerebellum” value (60 min p.i.) was 0.155 ± 0.024 % ID, the “% ID Cerebrum total” value (60 min p.i.) was 0.597 ± 0.062 % ID and the “% ID Cortex” value (60 min p.i.) was 0.074 ± 0.021 % ID. For the same compound, the “% ID Heart” value (60 min p.i.) was 1.0 ± 0.1 % ID, the “% ID Hippocampus” value (60 min p.i.) was 0.024 ± 0.003 % ID and the “% ID Intestines” value (60 min p.i.) was 12.0 ± 1.1 % ID. The “% ID Kidneys” value (60 min p.i.) was 1.9 ± 0.3 % ID, the “% ID Liver” value (60 min p.i.) was 18.6 ± 1.0 % ID and the “% ID Lungs” value (60 min p.i.) was 0.6 ± 0.1 % ID. For the same compound, the “% ID Rest of cerebrum” value (60 min p.i.) was 0.468 ± 0.054 % ID, the “% ID Spleen + Pancreas” value (60 min p.i.) was 0.8 ± 0.0 % ID and the “% ID Stomach” value (60 min p.i.) was 4.3 ± 1.8 % ID. For the same compound, the “% ID Striatum” value (60 min p.i.) was 0.031 ± 0.003 % ID, the “% ID Urine” value (60 min p.i.) was 0.6 ± 0.1 % ID and the “% ID present in liver and intestines” value (60 min p.i.) was 30.6 % ID. For the same compound, the “% ID present in the urinary system” value (60 min p.i.) was 2.5 % ID, the Total brain uptake (60 min p.i.) was 0.76 ± 0.1 % ID and the “SUV Blood” value (60 min p.i.) was 0.50 ± 0.00. For the same compound, the “SUV Cerebellum” value (60 min p.i.) was 1.57 ± 0.01, the “SUV Cerebrum total” value (60 min p.i.) was 1.24 ± 0.01 and the “SUV Cortex” value (60 min p.i.) was 1.01 ± 0.01. For the same compound, the “SUV Hippocampus” value (60 min p.i.) was 1.02 ± 0.01, the “SUV Striatum” value (60 min p.i.) was 1.46 ± 0.01 and the “% ID present in the carcass” value was about 54 % ID.
